Read-outs that look alike come from different tables or passages of the source.
How the values were obtained:
[1] = Rat tissue distribution test (oral, LC-MS-MS); type: in vivo; parameters: Hepatic drug concentration: unit not given here; conditions: for Hepatic drug concentration / Exposure level (0-4 h): oral 4 mg/kg; for Hepatic drug concentration / Kp: rat; for Exposure level (0-4 h): male SD rats; for Kp: male, SD, plasma set to 1, oral 4 mg/kg, read-out: Ratio of exposure level
Procedure: Three healthy male SD rats (body weight range 220-250 g, Zhejiang Charles River) were taken and assigned into one group (n=3). Compound 48, Compound A9 or comparison compound Vonoprazan were administered orally at a dose of 4 mg/kg.
Solvent for preparing pharmaceutical preparations: Pure water. The rats were fasted 4 h prior to the administration. […] The tissue was homogenized, and the corresponding blank tissue was used for preparation of a calibration curve and QC quantification. Blood samples should be centrifuged to extract plasma within 1 hour of collection and kept on crushed ice prior to the centrifugation. Plasma samples obtained by centrifugation were stored in a freezer until analysis. Centrifugation conditions: 4-10° C., 8000 rpm, 6 min. The concentration of the sample was determined by LC-MS-MS (MS03: Shimadzu LC30AD and API 4000)), and the exposure data were calculated by WINNOLIN software.

[2] = biological target: H+/K+-ATPase (rabbit gastric mucosal microsomes) (Oryctolagus cuniculus (Rabbit), UniProt P27112); experiment: In vitro screening test of H+/K+-ATPase inhibition (malachite green); type: biochemical; conditions: pH 6.5, 37° C. 30 min, read-out: IC50, inhibitory effect on H+/K+-ATPase activity
Chain of H+/K+-ATPase (rabbit gastric mucosal microsomes) (P27112 whole entry): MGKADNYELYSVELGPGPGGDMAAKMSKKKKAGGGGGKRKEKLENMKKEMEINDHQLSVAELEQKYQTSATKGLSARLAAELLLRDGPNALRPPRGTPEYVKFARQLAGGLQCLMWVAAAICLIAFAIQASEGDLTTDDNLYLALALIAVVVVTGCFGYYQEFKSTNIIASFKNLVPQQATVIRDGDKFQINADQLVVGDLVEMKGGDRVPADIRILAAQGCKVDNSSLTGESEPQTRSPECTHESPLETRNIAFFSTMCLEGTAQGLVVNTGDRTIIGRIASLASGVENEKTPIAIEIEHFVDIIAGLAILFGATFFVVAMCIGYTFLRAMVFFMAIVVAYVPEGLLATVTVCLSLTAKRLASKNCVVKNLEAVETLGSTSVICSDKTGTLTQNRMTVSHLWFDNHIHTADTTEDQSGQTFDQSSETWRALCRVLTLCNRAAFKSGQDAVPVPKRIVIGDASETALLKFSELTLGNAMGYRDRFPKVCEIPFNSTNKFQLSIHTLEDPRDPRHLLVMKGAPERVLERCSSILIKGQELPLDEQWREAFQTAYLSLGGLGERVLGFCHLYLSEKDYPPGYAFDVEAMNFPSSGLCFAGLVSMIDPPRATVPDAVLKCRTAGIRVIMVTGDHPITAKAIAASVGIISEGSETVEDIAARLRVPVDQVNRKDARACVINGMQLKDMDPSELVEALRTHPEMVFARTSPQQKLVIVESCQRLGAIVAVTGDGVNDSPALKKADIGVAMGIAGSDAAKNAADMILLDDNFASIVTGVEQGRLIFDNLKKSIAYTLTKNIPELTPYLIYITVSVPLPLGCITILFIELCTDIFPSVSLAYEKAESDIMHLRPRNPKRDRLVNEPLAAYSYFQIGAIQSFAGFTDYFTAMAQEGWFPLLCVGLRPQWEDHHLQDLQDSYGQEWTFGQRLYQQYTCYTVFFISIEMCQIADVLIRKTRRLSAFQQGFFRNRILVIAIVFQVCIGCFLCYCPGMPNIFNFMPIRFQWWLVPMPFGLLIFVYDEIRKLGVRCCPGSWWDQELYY
Chain of H+/K+-ATPase (rabbit gastric mucosal microsomes) (P18597 whole entry partner): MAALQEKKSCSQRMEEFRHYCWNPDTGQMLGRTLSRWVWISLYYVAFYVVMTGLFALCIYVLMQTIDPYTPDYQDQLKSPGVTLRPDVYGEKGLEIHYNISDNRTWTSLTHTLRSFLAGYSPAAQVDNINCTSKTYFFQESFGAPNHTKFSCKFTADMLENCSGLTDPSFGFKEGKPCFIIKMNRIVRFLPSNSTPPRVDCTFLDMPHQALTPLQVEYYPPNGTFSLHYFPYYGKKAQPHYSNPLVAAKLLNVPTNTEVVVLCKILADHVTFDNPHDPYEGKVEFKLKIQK
Source text: This test example evaluates the inhibitory effects of the compounds of the present invention on the activity of H+/K+-ATPase by an in vitro screening test, and expresses them with the IC50 values of the compounds (obtained by calculating the inhibition rates at different concentrations).
• Compound solutions: The products (i.e., the compounds or the hydrochloride salt of compounds) obtained in the foregoing preparation examples of the present invention were each independently dissolved in DMSO to form solutions at suitable concentrations; • Buffer I: 50 mmol/L HEPEs-Tris, pH=6.5, 5 mmol/L magnesium chloride, […] valinomycin (J&K Scientific Ltd., goods No.: 227304); • Buffer II: 50 mmol/L HEPEs-Tris, pH=6.5, 5 mmol/L magnesium chloride, […] valinomycin, 5 mmol/L potassium chloride; • 5-adenosine triphosphate (ATP, Sigma-Aldrich, goods No.: A2383) solution: Dilute ATP with buffer I to 5 mM; • Malachite green solution: Dissolve 0.12 wt % malachite green (J&K Scientific Ltd., goods No.: 913120) in 2.5 mol/L sulfuric acid, 7.5 wt % ammonium molybdate (J&K Scientific Ltd., goods No.: 128321) and 11% Tween 20(V/V). During use, sulfuric acid, ammonium molybdate and Tween 20 are mixed in a ratio of 100:25:2; • Rabbit gastric mucosal microsomes (rich in H+/K+-ATPase, self-extracted), extracted by sucrose gradient centrifugation: The rabbit stomach was washed with tap water and 3M NaCl solution, respectively, and then the surface water was removed with filter paper. A pre-cooled homogenization buffer (4 ml/g tissue) was added and homogenized for 2-5 min in a tissue homogenizer. After the homogenizing, if there are large tissue particles, they can be removed by centrifugation (600 g, 10 min). The supernatant was then transferred to a clean centrifuge tube and centrifuged at 20,000 g for 30 min, then the supernatant was transferred to a clean centrifuge tube and further centrifuged at 100,000 g for 90 min and the precipitate was collected; the precipitate was suspended in homogenate and blown evenly, and the protein concentration was measured by the Bradford's method and adjusted to 10 mg/ml; 7.5 wt % Ficoll's layering solution was added in equal proportions. After centrifugation at 100,000 g for 60 min, the middle layer (H^+/K^+-ATPase-enriched gastric membranes) was collected in a clean centrifuge tube, diluted with homogenate by 4-5 times, and then centrifuged at 100,000 g for another 90 min, and the precipitate was collected; the precipitate was suspended in homogenate and homogenized in a glass homogenizer, and the protein concentration was measured by the Bradford's method and adjusted to 22.5 mg/ml. It was frozen at −80° C. and stored for future use.
5 μL of rabbit gastric mucosal microsomes (H^+/K^+-ATPase) was added to 45 μL of buffer II, then 5 μL of compound solution was added, and then 5 μL of 5 mM ATP solution was added to start the reaction and pre-react at 37° C. for 30 min. 15 μL of malachite green solution was added to terminate the reaction, balancing was conducted at room temperature for 20 min, and read the optical absorbance at 620 nm.
Meanwhile, the reaction of the same volume was carried out without addition of potassium chloride as a background, which was subtracted when calculating enzymatic activity.

[3] = system: histamine-induced gastric acid secretion; experiment: Inhibition of histamine-induced gastric acid secretion in rats (pylorus ligation); type: in vivo, rat; conditions: SD rats, total acid over 3 h after histamine
Procedure: 70 SPF-level SD rats with a weight of 180-220 g (Hangzhou Medical College (produced)), randomly grouped by weight, including negative control groups (isovolumetric saline) and model control groups (isovolumetric saline), and compounds obtained in the foregoing preparation examples of the present invention (i.e., compounds or compound hydrochlorides) (2 mg/kg or 4 mg/kg), 10 rats each group, including 5 males and 5 females. The rats were fasted, but were allowed to drink water for 24 h. After 24 h, the rats were given the compound at 1 ml/100 g by gavage, once in each group, and the rats in the negative control groups and the model groups were given an equal volume of saline by gavage. After that, the rats were anesthetized with chloral hydrate 300 mg/kg (1 ml/100 g) and fixed on a rat plate, and the abdominal wall was incised along the abdominal midline from the subxiphoid process of the sternum, and the incision was approximately 2-3 cm and was made on the left costal margin, and the stomach was exposed to the incision by gently pushing it with the fingers upwards. The pylorus was ligated with a thread under the pylorus (other neighboring vessels were not ligated), and the abdominal wall incision was sutured. The animals were given histamine dihydrochloride (30 mg/10 ml/kg) subcutaneously after 1 h of gavage of the test compound or saline. After 3 h of histamine administration, the rats were asphyxiated with excess CO2, stomachs were removed, stomach contents were collected and centrifuged at 3000 rpm/min for 10 min, and the acid solution was titrated with 0.1 mol/L NaOH to pH7.0. The total acidity and acid inhibition rate during the 3 h period were calculated.
Acid inhibition rate (%)=(Total acid in the model group−total acid in the test group)/total acid in the model group×100%

Row | IC50 [2] [µM] | SMILES | Acid inhibition rate ([3]; 2 mg/kg by gavage) [%] | further results
1 | – | CNCc1cc(-c2ccccc2F)n(S(=O)(=O)c2cccnc2)c1 [Vonoprazan, reference compound] | – | Hepatic drug concentration ([1]; liver, 15 min): 9919; Hepatic drug concentration ([1]; liver, 1 h): 1192; Hepatic drug concentration ([1]; liver, 2 h): 632; Hepatic drug concentration ([1]; liver, 4 h): 162; Hepatic drug concentration ([1]; liver, 24 h): 23.7
2 | 0.036 | CNCc1cn(S(=O)(=O)c2cccnc2)c(-c2ccc(OCC3CC3)cc2F)c1OC [Compound 48, 1-(5-(4-(cyclopropylmethoxy)-2-fluorophenyl)-4-methoxy-1-(pyridin-3-ylsulfonyl)-1H-pyrrolo-3-yl)-N-methylmethylamine] | 75 | Acid inhibition rate ([3]; 4 mg/kg by gavage): 86%; Exposure level (0-4 h) ([1]; liver): 7.5855 µg·h/mL; Kp ([1]; liver): 88.4; Kp ([1]; plasma): 1; Kp ([1]; stomach): 171; Exposure level (0-4 h) ([1]; plasma): 0.0858 µg·h/mL; Exposure level (0-4 h) ([1]; stomach): 14.6937 µg·h/mL
3 | 0.0721 | CNCc1cc(-c2ccc(OC(C)C3CCOCC3)cc2F)n(S(=O)(=O)c2cccnc2)c1 (stereo not drawn) [Compound 8] | 71 | –
4 | 0.149 | CNCc1cc(-c2ccc(OCC3CCOCC3)cc2F)n(S(=O)(=O)c2cccnc2)c1 [Compound 6] | 48 | –
5 | 0.128 | CNCc1cc(-c2ccc(OCC3CCOC3)cc2F)n(S(=O)(=O)c2cccnc2)c1 (stereo not drawn) [Compound A13] | 60 | –
6 | 0.157 | CNCc1cc(-c2ccc(OC(C)C3CCOCC3)cc2F)n(S(=O)(=O)c2cccc(OCCCOC)c2)c1 (stereo not drawn) [Compound 37] | 56 | –
7 | 0.0308 | CNCc1cc(-c2ccc(OCC3CCOCC3)cc2F)n(S(=O)(=O)c2cccc(C#N)c2)c1 [Compound 28] | 71 | –
8 | 0.0277 | CNCc1cc(-c2ccc(OCC3CC3(F)F)cc2F)n(S(=O)(=O)c2cccnc2)c1 (stereo not drawn) [Compound A10] | 81 | Acid inhibition rate ([3]; 4 mg/kg by gavage): 87%

— patent publication US20260001864A1, “COMPOUND CONTAINING SULFAMIDE STRUCTURE, AND PREPARATION METHOD THEREFOR AND APPLICATION THEREOF, AND PHARMACEUTICAL COMPOSITION AND APPLICATION” (Nanjing Shuohui Pharmatechnology Co., Ltd, priority 2021, published 2026)
